{"source": "ChEMBL document CHEMBL6071148", "about": "“Synthesis and biological evaluation of novel 3,6- amide and thioamide substituted- 2,3,4,9-tetrahydro-1H-carbazoles for anti-cancer activity” (Eur J Med Chem, 2024)", "key": {"MCF7": {"test_system": "MCF7", "assay": "Cytotoxicity against human MCF7 cells assessed as inhibition of cell proliferation incubated for 72 hrs by MTT assay", "type": "functional, cell-based", "conditions": "MCF7, 72 h"}, "A549 [1]": {"test_system": "A549", "assay": "Cytotoxicity against human A549 cells assessed as inhibition of cell proliferation incubated for 72 hrs by MTT assay", "type": "functional, cell-based", "conditions": "A549, 72 h"}, "HCT-116 [2]": {"test_system": "HCT-116", "assay": "Cytotoxicity against human HCT-116 cells assessed as inhibition of cell proliferation incubated for 72 hrs by MTT assay", "type": "functional, cell-based", "conditions": "HCT-116, 72 h"}, "[3]": {"assay": "Cytotoxicity against human MRC5 cells assessed as inhibition of cell proliferation incubated for 72 hrs by MTT assay", "type": "toxicity, cell-based"}, "A549 [4]": {"test_system": "A549", "assay": "Cytotoxicity against human A549 cells assessed as reduction in cell viability incubated for 48 hrs by MTT assay", "type": "functional, cell-based", "conditions": "A549, 48 h"}, "[5]": {"assay": "Cytotoxicity against human SGC cells assessed as reduction in cell viability incubated for 48 hrs by MTT assay", "type": "functional, cell-based"}, "K562": {"test_system": "K562", "assay": "Cytotoxicity against human K562 cells assessed as reduction in cell viability incubated for 48 hrs by MTT assay", "type": "functional, cell-based", "conditions": "K562, 48 h"}, "HCT-116 [6]": {"test_system": "HCT-116", "assay": "Cytotoxicity against human HCT-116 cells assessed as reduction in cell viability incubated for 48 hrs by MTT assay", "type": "functional, cell-based", "conditions": "HCT-116, 48 h"}, "[7]": {"assay": "Cytotoxicity against human KB-R cells assessed as reduction in cell viability incubated for 48 hrs by MTT assay", "type": "functional, cell-based"}}, "data": [{"smiles": "CC(=O)Nc1ccc2[nH]c3c(c2c1)CC(NC(=O)c1ccccc1)CC3", "note": "(configuration not stated)", "values": [{"measurement": "IC50", "setting": "MCF7", "result": "> 50", "unit": "µM"}, {"measurement": "IC50", "setting": "A549 [1]", "result": "> 50", "unit": "µM"}, {"measurement": "IC50", "setting": "HCT-116 [2]", "result": "> 50", "unit": "µM"}, {"measurement": "IC50 at 72 h", "setting": "[3]", "result": "> 50", "unit": "µM"}]}, {"smiles": "CCN(CC)C1CCc2c(n(C)c3ccccc23)C1=O", "note": "(configuration not stated)", "values": [{"measurement": "IC50", "setting": "A549 [4]", "result": 110, "unit": "µM"}, {"measurement": "IC50", "setting": "[5]", "result": 24.4, "unit": "µM"}, {"measurement": "IC50", "setting": "K562", "result": 17.3, "unit": "µM"}, {"measurement": "IC50", "setting": "HCT-116 [6]", "result": 2.96, "unit": "µM"}, {"measurement": "IC50", "setting": "[7]", "result": 118, "unit": "µM"}]}, {"smiles": "CC(=O)Nc1ccc2[nH]c3c(c2c1)CC(NC(=O)c1cc2ccccc2[nH]1)CC3", "note": "(configuration not stated)", "values": [{"measurement": "IC50", "setting": "MCF7", "result": "> 50", "unit": "µM"}, {"measurement": "IC50", "setting": "A549 [1]", "result": "> 50", "unit": "µM"}, {"measurement": "IC50", "setting": "HCT-116 [2]", "result": "> 50", "unit": "µM"}, {"measurement": "IC50 at 72 h", "setting": "[3]", "result": "> 50", "unit": "µM"}]}, {"smiles": "CC(=O)NC1CCc2[nH]c3ccc(S(N)(=O)=O)cc3c2C1", "note": "(configuration not stated)", "values": [{"measurement": "IC50", "setting": "MCF7", "result": "> 50", "unit": "µM"}, {"measurement": "IC50", "setting": "A549 [1]", "result": "> 50", "unit": "µM"}, {"measurement": "IC50", "setting": "HCT-116 [2]", "result": "> 50", "unit": "µM"}, {"measurement": "IC50 at 72 h", "setting": "[3]", "result": "> 50", "unit": "µM"}]}]}
